According to patent publication US20040180917A1, “Novel tricyclic dihydro-quinoline derivatives, method for preparing same and pharmaceutical compositions containing the same” (priority 2001, published 2004):

Test system: L1210
Experiment: In vitro cytotoxicity, Microculture Tetrazolium Assay, L1210
Assay type: cell-based
Details: L1210 murine leukaemia, incubated for 2 days; read-out: IC50 (concentration of cytotoxic agent which inhibits proliferation of the treated cells by 50%)
Experimental: Three cell lines were used:
The cells are cultured in RPMI 1640 complete culture medium containing 10% foetal calf serum, 2 mM glutamine, 50 units/ml of penicillin, 50 μg/ml of streptomycin and 10 mM Hepes, pH=7.4. The cells are distributed on microplates and are exposed to the cytotoxic compounds. The cells are then incubated for 2 days (L1210) or 4 days (A549, HT29). The number of viable cells is then quantified by a colorimetric assay, the Microculture Tetrazolium Assay (Cancer Res. 1987, 47, 939-942).

COc1cc(C2C3=C(COC3=O)Nc3c2ccc2ccc(O)cc32)cc(OC)c1OC (stereo not shown) [Example 4]
IC50: 7 nM
